Source: PubChem BioAssay AID248 (DTP/NCI, 2004)
Toxic doses and inconclusive results are not listed. Rule as the data show it: active = T/C of 150% or more; inactive = T/C below 125%.

System: L1210 leukemia ip in BDF1 mice, survival T/C
Experiment: NCI In Vivo Anticancer Drug Screen. Data for tumor model L1210 Leukemia (intraperitoneal) in B6D2F1 (BDF1) mice
Conditions: endpoint: mean survival time, higher = longer survival
In short: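 Mice bearing the transplanted tumor received compound or vehicle. Survival of the treated group was divided by that of the vehicle-treated control group to give the ratio.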

[1] = dose: 100.0 mg/kg/injection, schedule: Q01DX009 (ip), vehicle: saline
[2] = dose: 200.0 mg/kg/injection, schedule: Q01DX009 (ip), vehicle: saline
[3] = dose: 400.0 mg/kg/injection, schedule: Q01DX009 (ip), vehicle: saline
[4] = dose: 400.0 mg/kg/injection, schedule: Q01DX001 (ip), vehicle: carboxymethylcellulose (CMC)
[5] = dose: 25.0 mg/kg/injection, schedule: Q01DX009 (ip), vehicle: saline
[6] = dose: 50.0 mg/kg/injection, schedule: Q01DX009 (ip), vehicle: saline
[7] = dose: 100.0 mg/kg/injection, schedule: Q04DX002 (ip), vehicle: saline with Tween-80
[8] = dose: 200.0 mg/kg/injection, schedule: Q04DX002 (ip), vehicle: saline with Tween-80
[9] = dose: 100.0 mg/kg/injection, schedule: Q01DX009 (ip), vehicle: Klucel (hydroxypropylcellulose) (HPC)
[10] = dose: 200.0 mg/kg/injection, schedule: Q01DX009 (ip), vehicle: Klucel (hydroxypropylcellulose) (HPC)
[11] = dose: 100.0 mg/kg/injection, schedule: Q04DX003 (ip), vehicle: saline with Tween-80
[12] = dose: 200.0 mg/kg/injection, schedule: Q04DX003 (ip), vehicle: saline with Tween-80
[13] = dose: 400.0 mg/kg/injection, schedule: Q04DX003 (ip), vehicle: saline with Tween-80
[14] = dose: 400.0 mg/kg/injection, schedule: Q01DX009 (ip), vehicle: Klucel (hydroxypropylcellulose) (HPC)
[15] = dose: 100.0 mg/kg/injection, schedule: Q04DX003 (ip), vehicle: saline
[16] = dose: 200.0 mg/kg/injection, schedule: Q04DX003 (ip), vehicle: saline
[17] = dose: 400.0 mg/kg/injection, schedule: Q04DX003 (ip), vehicle: saline
[18] = dose: 100.0 mg/kg/injection, schedule: Q04DX003 (ip), vehicle: Klucel (hydroxypropylcellulose) (HPC)
[19] = dose: 200.0 mg/kg/injection, schedule: Q04DX003 (ip), vehicle: Klucel (hydroxypropylcellulose) (HPC)
[20] = dose: 400.0 mg/kg/injection, schedule: Q04DX003 (ip), vehicle: Klucel (hydroxypropylcellulose) (HPC)
[21] = dose: 100.0 mg/kg/injection, schedule: Q01DX001 (ip), vehicle: saline
[22] = dose: 200.0 mg/kg/injection, schedule: Q01DX001 (ip), vehicle: saline
[23] = dose: 100.0 mg/kg/injection, schedule: Q01DX001 (ip), vehicle: carboxymethylcellulose (CMC)
[24] = dose: 50.0 mg/kg/injection, schedule: Q04DX003 (ip), vehicle: saline

Measured: T/C

Cc1cc(C(C)(C)C)ccc1S(=O)(=O)/C=C/c1ccccc1
inactive: dose: 100.0 mg/kg/injection, schedule: Q01DX001 (ip), vehicle: acetone 95 % of control | [1] 93 % of control | dose: 200.0 mg/kg/injection, schedule: Q01DX001 (ip), vehicle: acetone 97 % of control | [2] 88 % of control | dose: 400.0 mg/kg/injection, schedule: Q01DX001 (ip), vehicle: acetone 92 % of control | [3] 88 % of control

C/C(=C\C(=O)O)C(=O)O (tested in a mixture with another compound)
inactive: dose: 264.0 mg/kg/injection, schedule: Q01DX001 (ip), vehicle: carboxymethylcellulose (CMC) 113 % of control | [4] 112 % of control | dose: 600.0 mg/kg/injection, schedule: Q01DX001 (ip), vehicle: carboxymethylcellulose (CMC) 112 % of control

CC1(C)N=C(N)N=C(N)N1c1ccc(OCCNC(=O)Nc2ccc(S(=O)(=O)F)cc2)c(Cl)c1
inactive: [5] 102 % of control | [6] 105 % of control | [1] 113 % of control

COc1ccc(C(O)c2c(CN3CCCCC3)c3ccccc3n2C)cc1 (stereo not drawn)
inactive: [7] 100 % of control | [8] 97 % of control

CCOC(=O)c1ccc(NC(=O)Nc2cccc(C(F)(F)F)c2)cc1
inactive: [9] 92 % of control | [10] 90 % of control

O=C(O)c1cccc2cccc(C3SCCS3)c12
inactive: [11] 101 % of control | [12] 104 % of control | [13] 90 % of control

O=C(O)c1cccc([N+](=O)[O-])c1Br
inactive: [9] 94 % of control | [10] 100 % of control | [14] 91 % of control

O=C(O)c1ccccc1OCc1cc(=O)[nH]c(=O)[nH]1
inactive: [15] 95 % of control | [16] 95 % of control | [17] 98 % of control

COC1(c2ccc(Cl)s2)OC1(C)C (stereo not drawn)
inactive: [1] 100 % of control | [15] 100 % of control | [2] 96 % of control | [16] 105 % of control | [3] 105 % of control | [17] 96 % of control

CC(O)CNC1CCCCC1 (stereo not drawn)
inactive: dose: 75.0 mg/kg/injection, schedule: Q01DX001 (ip), vehicle: saline 92 % of control | dose: 150.0 mg/kg/injection, schedule: Q01DX001 (ip), vehicle: saline 100 % of control

O=Cc1[nH]c(=S)[nH]c(=O)c1Cc1ccccc1Cl
inactive: [18] 101 % of control | [19] 98 % of control | [20] 97 % of control

Clc1ccc(C2CC3(CC(c4ccc(Cl)cc4)N2)SSC2(CC(c4ccc(Cl)cc4)NC(c4ccc(Cl)cc4)C2)S3)cc1 (stereo not drawn)
inactive: [9] 98 % of control | [10] 108 % of control | [14] 98 % of control

CC(=O)Oc1cc(OC(C)=O)c(Oc2cc(OC(C)=O)c(OC(C)=O)c(OC(C)=O)c2)c(OC(C)=O)c1
inactive: [11] 97 % of control | [12] 95 % of control | [13] 90 % of control

CCCCCCCCCCCCCCCCCC(=O)OCCOC(=O)CCCCCCCCCCCCCCCCC
inactive: dose: 75.0 mg/kg/injection, schedule: Q01DX009 (ip), vehicle: other 103 % of control | dose: 100.0 mg/kg/injection, schedule: Q04DX002 (ip), vehicle: other 88 % of control | dose: 150.0 mg/kg/injection, schedule: Q01DX009 (ip), vehicle: other 96 % of control | dose: 200.0 mg/kg/injection, schedule: Q04DX002 (ip), vehicle: other 98 % of control | dose: 300.0 mg/kg/injection, schedule: Q01DX009 (ip), vehicle: other 111 % of control

COC1CCC(/C(C#N)=C/C2CCC3OCOC3C2)CC1 (stereo not drawn)
inactive: [7] 101 % of control | [8] 90 % of control | dose: 400.0 mg/kg/injection, schedule: Q04DX002 (ip), vehicle: saline with Tween-80 94 % of control

CN1CN(c2ccccc2)CSC1=S
inactive: dose: 50.0 mg/kg/injection, schedule: Q01DX009 (ip), vehicle: Klucel (hydroxypropylcellulose) (HPC) 102 % of control | [9] 107 % of control | [18] 94 % of control | [10] 95 % of control | [19] 89 % of control

CCOC(=O)c1cnc(SC)nc1Nc1cccc(Cl)c1
inactive: [9] 97 % of control | [18] 90 % of control | [19] 92 % of control | [14] 90 % of control | [20] 88 % of control

O=c1c(O)c(-c2ccc(-c3oc4ccccc4c(=O)c3O)cc2)oc2ccccc12
inactive: dose: 50.0 mg/kg/injection, schedule: Q01DX001 (ip), vehicle: saline 97 % of control | [21] 89 % of control | [22] 91 % of control | dose: 400.0 mg/kg/injection, schedule: Q01DX001 (ip), vehicle: saline 101 % of control

CC1(CC(O)(C(F)(F)F)C(F)(F)F)NC(=O)NC1=O (stereo not drawn)
inactive: dose: 100.0 mg/kg/injection, schedule: Q01DX009 (ip), vehicle: saline with Tween-80 97 % of control | [11] 93 % of control | dose: 200.0 mg/kg/injection, schedule: Q01DX009 (ip), vehicle: saline with Tween-80 99 % of control | [12] 96 % of control | dose: 400.0 mg/kg/injection, schedule: Q01DX009 (ip), vehicle: saline with Tween-80 99 % of control | [13] 91 % of control

CCOc1ccc2c(ccc(/C=C\c3cc(C)c4cccnc4c3O)[n+]2C)c1
inactive: dose: 25.0 mg/kg/injection, schedule: Q01DX001 (ip), vehicle: carboxymethylcellulose (CMC) 104 % of control | dose: 50.0 mg/kg/injection, schedule: Q01DX001 (ip), vehicle: carboxymethylcellulose (CMC) 109 % of control | [23] 93 % of control

CCCCCCCCCCC(=O)N1CCOCC1
inactive: dose: 12.5 mg/kg/injection, schedule: Q04DX003 (ip), vehicle: saline with Tween-80 98 % of control | dose: 25.0 mg/kg/injection, schedule: Q04DX003 (ip), vehicle: saline with Tween-80 95 % of control | dose: 50.0 mg/kg/injection, schedule: Q04DX003 (ip), vehicle: saline with Tween-80 101 % of control

O=c1[nH]c2ccc([As](O)O)cc2[nH]1
inactive: dose: 12.5 mg/kg/injection, schedule: Q01DX009 (ip), vehicle: water 109 % of control | dose: 25.0 mg/kg/injection, schedule: Q01DX009 (ip), vehicle: water 110 % of control | dose: 50.0 mg/kg/injection, schedule: Q01DX001 (ip), vehicle: water 98 % of control | dose: 50.0 mg/kg/injection, schedule: Q01DX009 (ip), vehicle: water 124 % of control | dose: 100.0 mg/kg/injection, schedule: Q01DX001 (ip), vehicle: water 101 % of control | dose: 200.0 mg/kg/injection, schedule: Q01DX001 (ip), vehicle: water 104 % of control | dose: 400.0 mg/kg/injection, schedule: Q01DX001 (ip), vehicle: water 114 % of control

CCC(C)C(CCCCN1CCOCC1)(CNC(=O)CN(CC)CC)c1cccc2ccccc12 (stereo not drawn)
inactive: dose: 12.5 mg/kg/injection, schedule: Q04DX003 (ip), vehicle: saline 104 % of control | dose: 25.0 mg/kg/injection, schedule: Q04DX003 (ip), vehicle: saline 98 % of control | [24] 108 % of control

Nc1nnc(Sc2n[nH]c(=O)[nH]c2=O)s1
inactive: [23] 98 % of control | dose: 200.0 mg/kg/injection, schedule: Q01DX001 (ip), vehicle: carboxymethylcellulose (CMC) 102 % of control | [4] 105 % of control

C=CCc1cc(OC)c2c(c1OC)C(=O)c1cccc(OC)c1C2=O
inactive: [11] 97 % of control | [12] 105 % of control

Nc1ccnc(Br)c1
inactive: [1] 103 % of control | [15] 109 % of control | [2] 100 % of control | [16] 107 % of control | [3] 101 % of control | [17] 112 % of control

O=S1(=O)C=C(Cl)C(Cl)C1 (stereo not drawn)
inactive: [5] 93 % of control | [6] 86 % of control | [24] 95 % of control | [21] 93 % of control | [15] 92 % of control | [22] 102 % of control
